Like-named read-outs stand apart in the source and are kept apart here.
Experiments:
[1] = system: SK-MEL-28; test: Inhibition of cells growth by colorimetric (SRB) assay, SK-MEL-28; settings: for GI50 / CC50: Homo sapiens, SK-MEL-28, 48 h
Summary of the method: (§1)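 Read-out is sulforhodamine B protein stain (OD 490 nm) after cold TCA fixation, following 48 h continuous exposure to samples spanning 10 to 10^−8 μg/ml.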

[2] = system: SK-BR-3; test: Inhibition of cells growth by colorimetric (SRB) assay, SK-BR-3; settings: for GI50 / CC50: Homo sapiens, SK-BR-3, 48 h
Summary of the method: as §1

CSc1nccc(-c2c3cccnc3n3c(N(C(C)=O)C(C)=O)nccc23)n1 [Compound 26]
GI50 ([1]; read-out: GI50 MEL-28, SRB assay, 48 hours exposure): 273 nM
CC50 ([1]; read-out: LC50 MEL-28, SRB assay, 48 hours exposure): 10100 nM
GI50 ([1]; read-out: MEL-28 GI50, SRB assay, 48 hours exposure): 202 nM
CC50 ([1]; read-out: MEL-28 LC50, SRB assay, 48 hours exposure): 1290 nM
MEL-28 TGI ([1]; SRB assay, 48 hours exposure): 5.38E−07
TGI MEL-28 ([1]; SRB assay, 48 hours exposure): 2.88E−06
GI50 ([2]; read-out: GI50 SK-BR-3, SRB assay, 48 hours exposure): 278 nM
CC50 ([2]; read-out: LC50 SK-BR-3, SRB assay, 48 hours exposure): 2530 nM
GI50 ([2]; read-out: SK-BR-3 GI50, SRB assay, 48 hours exposure): 4180 nM
CC50 ([2]; read-out: SK-BR-3 LC50, SRB assay, 48 hours exposure): 20700 nM
SK-BR-3 TGI ([2]; SRB assay, 48 hours exposure): 9.30E−06
TGI SK-BR-3 ([2]; SRB assay, 48 hours exposure): 8.38E−07

From patent US7772241B2, “Variolin derivatives and their use as antitumor agents” (Pharma Mar S.A., priority 2001, dated 2010)
